Measurements taken from patent publication US20040039157A1, “Anti-angiogenic peptides” (priority 2000, published 2004).

Key:
CT26 tumours = test: In vivo efficacy on growth of subcutaneous CT26 tumours; parameters: species or system Balb/c mice; settings: daily ip α1-24, p<0.001
Experimental: Experiments were performed on six-week-old Balb/C mice weighing 15 g, obtained from Sheffield Field Laboratories. All experiments were approved by the Home Office Project Licence Number PPL50/1414.
The CT26 cell line was maintained by in vitro passage in Dulbecco's Minimal Eagles Medium containing 10% foetal calf serum, and 1% penicillin and streptomycin and maintained at 37° C. in humidified atmosphere of 5% CO2 in air. The cell line was routinely checked to ensure freedom from mycoplasma (Mycoplasma rapid detection system, Gena-Probe Incorporated, U.S.A.).
Animals were anaesthetised with an intraperitoneal injection of diazepam (0.5 mg/ml, Dumex Ltd.) and hypnorm (fentanyl citrate 0.0315 mg/ml and fluanisone 1 mg/ml, Janssen Pharmaceutical Ltd.) in the ratio of 1:1 at a volume of 0.1 ml/200 g body weight, with supplementation as required to maintain adequate anaesthesia. […] Tumour growth and animal weights were monitored daily.
Tumour growth was measured daily and when the majority of animals in the cohort had tumour volumes of >100 mm^3 but <350 mm^3 animals were divided into experimental and control groups. […]
Tumour volumes were assessed by calliper measurements of the perpendicular diameters and volumes estimated using the equation: […]
where a is the smaller and b the larger diameter Animals were weighed on a daily basis and the general well being monitored.

SVEC4-10 cells = test: Tubule formation assay on GF-reduced Matrigel, SVEC4-10 cells; format: cell-based, Murine; settings: FIG. 4, 6 h
Experimental: Adult human dermal microvascular endothelial cells (HuDMECs) were obtained commercially (TCS Biologicals, Buckinghamshire, United Kingdom) and cultured in microvascular endothelial cell growth medium (EGM). This medium contains heparin (10 ng/ml), hydrocortisone, human epidermal growth factor (10 ng/ml), human fibroblast growth factor (10 ng/ml) (such endothelial growth factors are necessary for routine passaging of HuDMECs in culture) and dibutyryl cyclic AMP. This was supplemented with 5% heat-inactivated FCS, 50 μg/ml gentamicin and 50 ng/ml amphotericin B (TCS Biologicals, United Kingdom). Murine endothelial cells (SVEC 4-10) were obtained from the ATCC and cultured in DMEM+10% FCS. Cells were grown at 37° C. in a 100% humidified incubator with a gas phase of 5% CO2 and routinely screened for Mycoplasma. Prior to their use in the assays indicated below, HuDMECs were grown to 80% confluency, incubated in DMEM+1% FCS for 2 h, then harvested with 0.05% trypsin solution, washed twice and resuspended to the cell density required for each assay (see below).
24 well plates were coated with 30 μl/well of growth factor-reduced (GF-reduced) Matrigel (Becton Dickinson Labware, Bedford, Mass.). […] Tubule formation was assessed by counting the number of tubule branches and the total area covered by tubules in each field of view using image analysis software supplied by Scion Image.

ADSGEGDFLAEGGGVRGPRVVERH (ADSGEGDFLAEGGGVRGPRVVERH) [α1-24, 24 amino acid peptide from the amino terminus of the fibrinogen α chain]
final tumour volume (CT26 tumours; Example 1, day 14, starting volume 235±30, vehicle control final 2245±371): 1341±145 mm^3
final tumour volume (CT26 tumours; Example 2, day 12, starting volume 338±39, vehicle control final 3072±255): 2029±504 mm^3
tubule formation (area covered by tubules) (SVEC4-10 cells; absence of growth factors): significantly (p<0.03) reduced tubule formation
tubule formation (area covered by tubules) (SVEC4-10 cells; presence of growth factors (VEGF 10 ng/ml or bFGF 10 ng/ml)): significantly (p<0.03) reduced tubule formation
